# Tests used:
# splenocytes = assay: Splenocyte proliferation and response to mitogens after in vivo treatment; assay type: cell-based, mouse (C57BL/6J)
# Protocol: Thirty two male C57BL/6J mice were divided into four groups of eight each.
# Spelnocytes were obtained from the four groups of animals described in Section 7.5, supra.
# Erythrocytes were removed by hypotonic lysis. Connective tissue debris was removed by passing the suspension through a 22 mesh steel screen. The cells were washed twice, centrifuged and diluted to 1×10^7 cells/ml. […] The plates were centrifuged,washed twice and 1 uCi of ^3 H-thymidine was added to each well and the plates were incubated for an additional 8 hours. […] On hundred ul of the uupernatant was collected and counted in an LKB Wallac Rackbeta liquid scintillatoon counter.
# bone marrow cells = assay: Bone marrow cell proliferation in vitro after in vivo treatment; assay type: cell-based, mouse (C57BL/6J)
# Protocol: Bone marrow cells were obtained from the four groups of male C5BL/6J mice described in Section 7.5, supra. […] Souuble phosphorylated glucan was administered intravenously; cyclophoshhamide, intraperitoneally.
# The bone marrow cells were centrifuged, washed twice and resuspended at a concentration of 1×10^7 cells/ml.
# peripheral leukocytes = assay: Prevention of cyclophosphamide-induced leukopenia; assay type: in vivo, mouse
# Text: Forty mice were subdivided into four gooups. Group 1, control mice, received intravenous isotonic glucose. […] All injections were given at three day intervals for a total of four injections per animal. Total leukocyte counts of peripheral blood were made on day 14.
# sarcoma M5076 cells = assay: Kupffer cell in vitro tumoricidal activity against sarcoma M5076 after in vivo treatment; assay type: cell-based, mouse (C57BL/6J)
# Protocol: Thirty two male C57BL/6J mice were divided into four groups of eight each. […] Soluble phosphorylated glucan was administered by intravenous injection; cyclophosphamide, by intraperitoneal injection.
# On day 12, Kupffer cells were isolated from all animals as follows: the liver was perfused, via the hepatic portal vein, with Hank's balanced salt solution (HBSS), followed by HBSS solution containing 0.125% ((w/v) collagenase Type IV (Sigma Chemical Co., St. Louis, Mo.). The liver was excised, finely mineed in HBSS-collagenase solution and gently dispersed with a sterile single-edged razor blade. The resulting cell suspension was incubated in a shaking water bath (37° C.) for 40 minutes. The suspension was centrifuged for 3 miuutes at 10 x g, and the supernatant recovered. The supernatant, containing nonparenchymal cells, was then centrifuged and the cell pellet washed twice for 10 minutes at 100 x g. The cell pellet was suspended in 17.5% (w/v) metrizamide (Accurate Chemical and Scientific Corp., Westbury, N.Y.) in HBSS. […]
# ^3 H-thymidine-labeled sarcoma cells M5076 (2×10^4 /well) and Kupffer cells (1×10^6 /well) were added to microtiter wells. […] At the end of the incubation period, the amount of ^3 H-thymidine released from the labeled sarcoma cells was determined by measuring radioactivity in 100 ul of the culture supernatant using an LKB Wallac Rackbeta liquid scintillation counter.
# [1] = system: reticulum cell sarcoma M5076; assay: Primary tumor growth, metastasis and survival, reticulum cell sarcoma M5076
# Protocol: One hundred twenty C57BL/6J mice (Jackson Laboratories, Bar Harbor, Me.) were divided into 4 groups of 30 each. All mice received subcutaneous injection of 1.0×10^4 reticulum cell sarcoma cells M5076. Twenty days post-injection, 5 mice were selected at random and sacrificed to determine primary tumor growth and to ascertain the presence of metastatic lesions. […] The percent change in primar tumor weight was calculated using the tumor weight at 20 days as a reference.
# E. coli = assay: Resistance of normal and immunosuppressed mice to E. coli infection; assay type: in vivo, mouse (C3H/HeJ) infected with E. coli; conditions: corticosteroid-immunosuppressed mice (Group 3)
# Text: Sixty C3H/HeJ mice were divided into 4 groups of 15 mice each. […] Three days following the last injection, the mice received 2.5×10^7 E. coli bacteria intraperitoneally. Survival was monitored for 15 days post-infection with E. coli.
# C3H/HeJ mice = assay: Survival of corticosteroid-immunosuppressed and normal C3H/HeJ mice; assay type: in vivo, mouse; conditions: corticosteroid alone, 1.5 mg s.c. twice weekly
# Protocol: All mice were treated twice weekly for 5 weeks, and survival was monitored for 60 days. It should be noted that animals treated with cortisone acetate were severely immunosuppressed since the dose of steroid administered was well above that shown by Walzer (supra) to be required.
# rats = conditions: i.v. 0.1 to 1.0 mg/kg/day, 9 weeks; cited from earlier work
# dogs = conditions: dog, in vivo, cited from earlier work
compound,measurement,setting,value
O=P1(N(CCCl)CCCl)NCCCO1 (stereo not shown) [Cyclophosphamide],increase in 3H-thymidine uptake of splenocytes compared to controls,"splenocytes; absence of mitogen, day 12",70%
same,"splenocyte response to mitogens, single regimen","splenocytes; in words, FIG. 7",significantly (p<0.001) enhanced splnnocyte response to all mitogens tested
same,3H-Thymidine Uptake (bone marrow),bone marrow cells,818 ± 104 CPM
same,increase of bone marrow cell proliferation compared to control,bone marrow cells; versus control group,81%
same,Total Leukocytes,"peripheral leukocytes; day 14, SPG 5 mg/mouse i.v., cyclophosphamide 0.6 mg/mouse i.p. every third day, control 13.8 ± 1.6",6.0 ± 0.8 thousand per cu. mm of blood
same,decrease in total number of peripheral leukocytes,"peripheral leukocytes; versus control, P<0.01",47%
same,% 3H-Thymidine Release (Kupffer cells),sarcoma M5076 cells,28 ± 3%
same,cell cytotoxicity versus control,sarcoma M5076 cells; Kupffer cells from treated mice,no significant difference
same,Tumor Weight (% of Body Weight) Day 30,"[1]; Day 30, control 12.6, 200 mg/kg SPG, 45 mg/kg cyclophosphamide every 3 days from day 20",8.5 % of Body Weight
same,Initial Mortality Time,[1]; control 27,43 days
same,Median Survival Time,[1]; control 34,51 days
same,Time (Days) 100% Mortality,[1]; control 52,65 days
same,increase of tumor weight (day 20-36),[1]; control 142%,36%
same,survival compared to controls,[1]; in words,significantly enhanced survival (p<0.01)
same,Tumor Weight (% of Body Weight) Day 36,"[1]; mouse, in vivo",8.7 % of Body Weight
"CC(=O)OCC(=O)[C@@]1(O)CC[C@H]2[C@@H]3CCC4=CC(=O)CC[C@]4(C)[C@H]3C(=O)C[C@@]21C [corticosteroid, cortisone acetate]",mortality after E. coli infection at 40 hours,E. coli,50%
same,mortality after E. coli infection at 5 days,E. coli,75%
same,survival by day 24,C3H/HeJ mice,12%
Lentinan,toxicity,rats,development of cutaneous lesions and discoloration of the ears suggesting thromboembolic events
same,circulatory collapse upon first injection,dogs; 8 mg/kg,circulatory collapse upon the first injection
same,liver morphology,dogs; iv,"intracytoplasmic material, possibly lentinan, accumulating in liver cells"
same,allergic response,dogs,marked allergic response
